Experimental data: patent US20040142888A1, “Modulators of RabGGT and methods of use thereof” (priority 2002, published 2004)

Assays:
C. elegans germline [1] = assay: Apoptosis in the C. elegans germline (apoptotic corpses per germline arm), after compound and/or RNAi treatment; format: in vivo; details: wild-type worms, compound 1.5 mM
Protocol: The compounds were applied to early larval and adult C. elegans hermaphrodites by mixing a concentrated DMSO solution of the compound with heat-killed OP50 bacteria in a salt solution. The bacteria were then applied to agar plates and worms of the appropriate age seeded onto the plates. Compounds 7A, 7B, 7C, 7D, 7H, 7I and 7J were applied to worms at a final concentration of 1.5 mM. and the resulting visible phenotypes analyzed. The phenotype of apoptosis in C. elegans was quantified as follows: Germ cells in the C. elegans hermaphrodite gonad progress through various stages of differentiation to become mature ova. At the pachytene stage of meiotic prophase, some germ cells undergo programmed cell death (apoptosis) as part of normal development. The apoptotic corpses resulting from this process can be visualized by high-resolution Nomarski optics and are readily distinguishable cells to the trained eye from viable germ cells by their compact, button-like appearance. Necrotic cells, which are rarer, have a less compact appearance. Apoptosis is most reliably distinguished from necrosis, however, by its requirement for the core apoptotic machinery, such as a functional caspase/ced-3 gene. Since C. elegans has symmetrical anterior and posterior gonad structures, referred to as “arms”, apoptosis is scored by visually counting the apoptotic corpses present in a 1-2 day old adult in each germline arm. Normal, untreated worms rarely contain more than 2 corpses per arm. In a treated sample, the number of worms that contain more than 2 corpses provides a very accurate indicator of the apoptotic effect of the treatment. Early larval and adult C. elegans hermaphrodites were treated with compound and the phenotype of apoptosis in the germline arm was quantified as described in Example IV. DNA encoding GGTase alpha/[…].2 (GenBank entry NM-067966) and GGTase beta/B0280.1 (GenBank entry NM 066158) was amplified from a C. elegans genomic DNA template by PCR (Takara LA Taq DNA polymerase) using oligonucleotides containing gene-specific priming sequences that were flanked by sequences encoding the T7 polymerase priming site. The gene-specific priming sequences targeted the first 5 exons of B0280.1 (product size 2 kiloBases) and the first four exons of […].2 (product size 1 kiloBases). The PCR products were analyzed by gel electrophoresis to confirm that the correct product size was obtained. RNA was transcribed from the PCR product using the MEGAscript High Yield Transcription Kit (Ambion) according to manufacturer's instructions. Directly after transcription, the RNA was annealed by heating to 68° C. for 20 minutes. The double stranded RNA (dsRNA) was checked for product quality by gel electrophoresis. The dsRNA was then ethanol-precipitated, washed once with 100% ethanol and twice with 70% ethanol and the pellet was allowed to air dry for 30 minutes. The dsRNA was re-suspended in 1× IM buffer (20 mM KPO4, 3 mM potassium citrate, 2% PEG 6000) in volume equal to the original in vitro transcription reaction, and stored at -20° C. For RNAi treatment of worms, wild type animals at the L2/L3 stage of development were collected in M9 buffer at 50 animals/μl (M9 is 0.044 M KH2PO4, 0.085 M Na2HPO4, 0.18 M NaCl and 1 mM MgSO4). 1 μl of this nematode suspension was added to 3 μl of dsRNA and incubated for 24 hours in a sealed 96 well plate at 20° C. in a humidified chamber. Animals were allowed to develop to adulthood before compound treatment and/or assay of germline apoptosis as described in Example IV. Early larval and adult C. elegans hermaphrodites were treated with compound as described in Example IV. RNAi preparation and treatment was performed as described in Example VI. The phenotype of apoptosis in the germline arm was quantified as described in Example IV. Early larval and adult C. elegans hermaphrodites were treated with compound as described in Example IV. RNAi preparation and treatment was performed as described in Example VI. […]

C. elegans germline [2] = assay: as above; format: in vivo; details: for increase in apoptotic corpses / % arms with >2 corpses / Corpses/germline arm, mean / Frequency: germline arms with 0 apoptotic corpses / Frequency: germline arms with 1 apoptotic corpse / Frequency: germline arms with 2 apoptotic corpses / Frequency: germline arms with 3 apoptotic corpses / Frequency: germline arms with 4 apoptotic corpses / Frequency: germline arms with >4 apoptotic corpses: 7B at 1.6 mM
HCT116 colon tumor = details: HCT116 xenograft, 600 mg/kg orally once daily for ten doses, cited from earlier work
[3] = wild-type worms, 7B 0.3 mM and/or RNAi against RabGGT alpha subunit

COc1ccc(S(=O)(=O)N2Cc3cc(C#N)ccc3N(Cc3cncn3C)C[C@H]2Cc2ccccc2)cc1 [Compound 7I]
% arms with >2 corpses (C. elegans germline [1]): 33%
Corpses/germline arm, mean (C. elegans germline [1]): 2.3
Frequency: germline arms with 0 apoptotic corpses (C. elegans germline [1]): 1
Frequency: germline arms with 1 apoptotic corpse (C. elegans germline [1]): 3
Frequency: germline arms with 2 apoptotic corpses (C. elegans germline [1]): 3
Frequency: germline arms with 3 apoptotic corpses (C. elegans germline [1]): 1
Frequency: germline arms with 4 apoptotic corpses (C. elegans germline [1]): 2
Frequency: germline arms with >4 apoptotic corpses (C. elegans germline [1]): 1
effect on mean number of apoptotic corpses in the germline (C. elegans germline [1]): increasing the mean number of apoptotic corpses in the germline

N#Cc1ccc2c(c1)CN(S(=O)(=O)N1CCCCC1)[C@H](Cc1ccccc1)CN2Cc1cnc[nH]1 [Compound 7B]
increase in apoptotic corpses (C. elegans germline [2]; APAF-1/ced-4 mutants): no increase in corpses was observed
% arms with >2 corpses (C. elegans germline [2]; WT worms): 100%
Corpses/germline arm, mean (C. elegans germline [2]; WT worms): 6.25
Frequency: germline arms with 0 apoptotic corpses (C. elegans germline [2]; WT worms): 0
Frequency: germline arms with 1 apoptotic corpse (C. elegans germline [2]; WT worms): 0
Frequency: germline arms with 2 apoptotic corpses (C. elegans germline [2]; WT worms): 0
Frequency: germline arms with 3 apoptotic corpses (C. elegans germline [2]; WT worms): 1
Frequency: germline arms with 4 apoptotic corpses (C. elegans germline [2]; WT worms): 0
Frequency: germline arms with >4 apoptotic corpses (C. elegans germline [2]; WT worms): 10
increase in apoptotic corpses (C. elegans germline [2]; caspase/ced-3 mutants): no increase in corpses was observed
% arms with >2 corpses (C. elegans germline [2]; ced3 mutant worms): 0%
Corpses/germline arm, mean (C. elegans germline [2]; ced3 mutant worms): 0.08
Frequency: germline arms with 0 apoptotic corpses (C. elegans germline [2]; ced3 mutant worms): 12
Frequency: germline arms with 1 apoptotic corpse (C. elegans germline [2]; ced3 mutant worms): 1
Frequency: germline arms with 2 apoptotic corpses (C. elegans germline [2]; ced3 mutant worms): 0
Frequency: germline arms with 3 apoptotic corpses (C. elegans germline [2]; ced3 mutant worms): 0
Frequency: germline arms with 4 apoptotic corpses (C. elegans germline [2]; ced3 mutant worms): 0
Frequency: germline arms with >4 apoptotic corpses (C. elegans germline [2]; ced3 mutant worms): 0
% arms with >2 corpses (C. elegans germline [2]; ced4 mutant worms): 0%
Corpses/germline arm, mean (C. elegans germline [2]; ced4 mutant worms): 0.15
Frequency: germline arms with 0 apoptotic corpses (C. elegans germline [2]; ced4 mutant worms): 11
Frequency: germline arms with 1 apoptotic corpse (C. elegans germline [2]; ced4 mutant worms): 2
Frequency: germline arms with 2 apoptotic corpses (C. elegans germline [2]; ced4 mutant worms): 0
Frequency: germline arms with 3 apoptotic corpses (C. elegans germline [2]; ced4 mutant worms): 0
Frequency: germline arms with 4 apoptotic corpses (C. elegans germline [2]; ced4 mutant worms): 0
Frequency: germline arms with >4 apoptotic corpses (C. elegans germline [2]; ced4 mutant worms): 0
observed number of apoptotic corpses per germline arm (C. elegans germline [2]; wild-type adult worms, compound at 0.8 mM or higher): 5-7
% arms with 0-2 corpses (C. elegans germline [2]; [3]): 50%
% arms with 3-4 corpses (C. elegans germline [2]; [3]): 33%
% arms with >4 corpses (C. elegans germline [2]; [3]): 17%
Corpses/arm, mean (C. elegans germline [2]; [3]): 2.3
Frequency: arms with 0 apoptotic corpses (C. elegans germline [2]; [3]): 5
Frequency: arms with 1 apoptotic corpse (C. elegans germline [2]; [3]): 5
Frequency: arms with 2 apoptotic corpses (C. elegans germline [2]; [3]): 2
Frequency: arms with 3 apoptotic corpses (C. elegans germline [2]; [3]): 5
Frequency: arms with 4 apoptotic corpses (C. elegans germline [2]; [3]): 3
Frequency: arms with >4 apoptotic corpses (C. elegans germline [2]; [3]): 4
% arms with >2 corpses (C. elegans germline [1]): 92%
Corpses/germline arm, mean (C. elegans germline [1]): 6.9
Frequency: germline arms with 0 apoptotic corpses (C. elegans germline [1]): 0
Frequency: germline arms with 1 apoptotic corpse (C. elegans germline [1]): 0
Frequency: germline arms with 2 apoptotic corpses (C. elegans germline [1]): 1
Frequency: germline arms with 3 apoptotic corpses (C. elegans germline [1]): 1
Frequency: germline arms with 4 apoptotic corpses (C. elegans germline [1]): 0
Frequency: germline arms with >4 apoptotic corpses (C. elegans germline [1]): 10

Cn1cncc1CN1C[C@@H](Cc2ccccc2)N(S(=O)(=O)c2cccs2)Cc2cc(C#N)ccc21 [Compound 7J]
% arms with >2 corpses (C. elegans germline [1]): 59%
Corpses/germline arm, mean (C. elegans germline [1]): 2.8
Frequency: germline arms with 0 apoptotic corpses (C. elegans germline [1]): 3
Frequency: germline arms with 1 apoptotic corpse (C. elegans germline [1]): 4
Frequency: germline arms with 2 apoptotic corpses (C. elegans germline [1]): 1
Frequency: germline arms with 3 apoptotic corpses (C. elegans germline [1]): 4
Frequency: germline arms with 4 apoptotic corpses (C. elegans germline [1]): 4
Frequency: germline arms with >4 apoptotic corpses (C. elegans germline [1]): 3
effect on mean number of apoptotic corpses in the germline (C. elegans germline [1]): increasing the mean number of apoptotic corpses in the germline

COc1ccc(S(=O)(=O)N2Cc3cc(C#N)ccc3N(Cc3cnc[nH]3)C[C@H]2Cc2ccccc2)cc1 [Compound 7A]
% arms with >2 corpses (C. elegans germline [1]): 36%
Corpses/germline arm, mean (C. elegans germline [1]): 2.0
Frequency: germline arms with 0 apoptotic corpses (C. elegans germline [1]): 1
Frequency: germline arms with 1 apoptotic corpse (C. elegans germline [1]): 4
Frequency: germline arms with 2 apoptotic corpses (C. elegans germline [1]): 2
Frequency: germline arms with 3 apoptotic corpses (C. elegans germline [1]): 3
Frequency: germline arms with 4 apoptotic corpses (C. elegans germline [1]): 0
Frequency: germline arms with >4 apoptotic corpses (C. elegans germline [1]): 1
effect on mean number of apoptotic corpses in the germline (C. elegans germline [1]): increasing the mean number of apoptotic corpses in the germline

CCCS(=O)(=O)N1Cc2cc(C#N)ccc2N(Cc2cnc[nH]2)C[C@H]1Cc1ccccc1 [Compound 7H]
death attributed to drug related toxicity (among eight mice treated) (HCT116 colon tumor): one
mice that experienced cure of the tumor (among eight mice treated) (HCT116 colon tumor; cure = no mass larger than 35 mg): seven
% arms with >2 corpses (C. elegans germline [1]): 29%
Corpses/germline arm, mean (C. elegans germline [1]): 1.6
Frequency: germline arms with 0 apoptotic corpses (C. elegans germline [1]): 5
Frequency: germline arms with 1 apoptotic corpse (C. elegans germline [1]): 4
Frequency: germline arms with 3 apoptotic corpses (C. elegans germline [1]): 3
Frequency: germline arms with 4 apoptotic corpses (C. elegans germline [1]): 2
Frequency: germline arms with >4 apoptotic corpses (C. elegans germline [1]): 0
effect on mean number of apoptotic corpses in the germline (C. elegans germline [1]): increasing the mean number of apoptotic corpses in the germline
